Tests used:
[1] = tested on: zebrafish BMP receptor ALK3; assay: Zebrafish ALK3 reporter in zebrafish assays according to example 1; type: in vivo; details: assays as in example 1
Description: To generate the zebrafish ALK3 reporter construct, the Tkv CDS was excised from the TIPF reporter (as constructed in example 1) with PstI and EcoRI to obtain the linearized expression vector without the TGF-beta receptor according to SEQ ID No. 22. In this vector the corresponding full length cDNA encoding the zebrafish ALK3 according to SEQ ID No. 2 was cloned, which was amplified from a custom cDNA library using primers carrying EcoRI (5′primer) and NsiI (3′primer).
Zebrafish assays were performed according to example 1.

[2] = tested on: phosphorylated Smad1/5 transcription factors; assay: phospho-SMAD1/5/8 antibody staining of fixed embryos; type: in vivo, Danio rerio; details: 30% epiboly
Description: While at that stage there is not yet a morphological marker for the prospective dorsal or ventral sides of the embryo, BMP pathway activation can be detected by accumulation of phosphorylated Smad1/5 transcription factors in the prospective ventral nuclei. […] As shown in FIG. 3 (top), fluorescence of the TIPF reporter (left) coincides with the region of increased pSmad staining (center).

homozygous tkv mutants = assay: Rescue of tkv mutant flies by the ubiquitin-promoter reporter transgene; type: in vivo, Drosophila; details: expressed from the ubiquitin promoter in transgenic flies
Description: Using P-element mediated transgenesis with the plasmids described above transgenic fly lines were generated in a w^1118 background expressing the TIPF fusion protein under control of the ubiquitously expressed Ubiquitin promoter or in a tissue specific manner from the UAS promotor. For both transgenic construct insertions on all three major chromosomes were obtained. Insertions on the X chromosome were balanced with FM6 w^−, 2nd chromosome insertion were balanced with CyO and 3rd chromosomal insertions with TM3, Sb.

zebrafish BMP receptor ALK3, sequence (as listed by the source): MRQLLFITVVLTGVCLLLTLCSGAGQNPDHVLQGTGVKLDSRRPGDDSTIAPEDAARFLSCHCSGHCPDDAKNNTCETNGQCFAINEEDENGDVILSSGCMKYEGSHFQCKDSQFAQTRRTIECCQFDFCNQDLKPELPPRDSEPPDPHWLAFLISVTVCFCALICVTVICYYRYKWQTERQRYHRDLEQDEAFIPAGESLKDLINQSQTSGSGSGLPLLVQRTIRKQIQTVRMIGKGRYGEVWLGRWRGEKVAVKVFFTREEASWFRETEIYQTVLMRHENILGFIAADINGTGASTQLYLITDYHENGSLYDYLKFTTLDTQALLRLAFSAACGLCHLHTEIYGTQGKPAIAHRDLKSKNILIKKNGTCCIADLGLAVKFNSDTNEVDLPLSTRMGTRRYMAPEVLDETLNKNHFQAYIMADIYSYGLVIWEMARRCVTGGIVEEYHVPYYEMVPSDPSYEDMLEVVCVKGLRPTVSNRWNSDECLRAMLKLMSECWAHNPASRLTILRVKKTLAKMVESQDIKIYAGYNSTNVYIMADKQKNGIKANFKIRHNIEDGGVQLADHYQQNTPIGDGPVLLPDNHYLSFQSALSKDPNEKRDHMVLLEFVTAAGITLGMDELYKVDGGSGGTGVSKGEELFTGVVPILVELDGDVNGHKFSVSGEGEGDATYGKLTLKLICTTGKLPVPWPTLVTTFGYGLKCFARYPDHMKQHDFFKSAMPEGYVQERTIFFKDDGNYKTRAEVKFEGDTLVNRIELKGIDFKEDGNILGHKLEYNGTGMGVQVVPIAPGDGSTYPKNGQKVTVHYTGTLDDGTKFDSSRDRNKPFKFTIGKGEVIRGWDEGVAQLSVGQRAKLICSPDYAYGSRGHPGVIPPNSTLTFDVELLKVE

Substance	behaviour of reporter in zebrafish assays [1]	reporter fluorescence versus region of phospho-Smad staining [2]	rescue of lethality of homozygous tkv mutants (homozygous tkv mutants)
zebrafish ALK3 reporter: Inverse Pericam core and Drosophila FKBP12 cassette fused to the zebrafish BMP receptor ALK3	behaved like the fly version used in example 1	–	–
TIPF reporter: fusion protein of Drosophila Tkv, an inverse pericam core and Drosophila FKBP12 linked by short linkers	–	coincided with the region of BMP pathway activation	rescue the lethality associated with homozygous tkv mutants to full adult survival
